Source: ChEMBL document CHEMBL1201862, “PubChem BioAssay data set” (2004)
The source made the active and inactive calls.

Tests used:
[1] = HepG2 cell cytotoxicity, dose response, cytotoxicity control for non-replicating M. tuberculosis project (AID 489018); assay type: functional; details: Mycobacterium tuberculosis
[2] = Vero E6 cell cytotoxicity, dose response, cytotoxicity control for non-replicating M. tuberculosis project, secondary assay (AID 492998); assay type: functional, VeroE6; details: Vero C1008
[3] = target: T1, Ubiquitin-conjugating enzyme E2 N (Homo sapiens, UniProt P61088); assay type: functional;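 further: Dose-response confirmation in a TR-FRET assay detecting UBC13-driven polyubiquitin chain formation, inhibition measured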
T1 sequence (P61088 whole entry): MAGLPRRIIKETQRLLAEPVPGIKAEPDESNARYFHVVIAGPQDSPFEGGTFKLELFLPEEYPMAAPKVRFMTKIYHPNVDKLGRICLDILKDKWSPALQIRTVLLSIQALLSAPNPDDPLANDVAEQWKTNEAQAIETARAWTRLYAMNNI

[4] = toxicity toward HepG2 liver cells – cell-based, plate reader, cherry-pick, antagonist series, cytotoxicity control, dose response (AID 743416); assay type: functional
[5] = blockers of bursicon-stimulated LGR2 cAMP reporter – cell-based, HEK293, CRE-luciferase reporter, cherry pick, set 2, dose response (AID 743343); assay type: functional;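 further: transfected cells were stimulated with diluted bursicon conditioned medium after compound addition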
[6] = target: T2, Rac GTPase-activating protein 1 (Homo sapiens, UniProt Q9H0H5); assay: blockers of MgcRacGAP-driven Rac1 GTP hydrolysis – biochemical, ADP Hunter fluorescence, primary and confirmatory, confirmation (AID 624330); assay type: functional
T2 sequence (Q9H0H5 whole entry): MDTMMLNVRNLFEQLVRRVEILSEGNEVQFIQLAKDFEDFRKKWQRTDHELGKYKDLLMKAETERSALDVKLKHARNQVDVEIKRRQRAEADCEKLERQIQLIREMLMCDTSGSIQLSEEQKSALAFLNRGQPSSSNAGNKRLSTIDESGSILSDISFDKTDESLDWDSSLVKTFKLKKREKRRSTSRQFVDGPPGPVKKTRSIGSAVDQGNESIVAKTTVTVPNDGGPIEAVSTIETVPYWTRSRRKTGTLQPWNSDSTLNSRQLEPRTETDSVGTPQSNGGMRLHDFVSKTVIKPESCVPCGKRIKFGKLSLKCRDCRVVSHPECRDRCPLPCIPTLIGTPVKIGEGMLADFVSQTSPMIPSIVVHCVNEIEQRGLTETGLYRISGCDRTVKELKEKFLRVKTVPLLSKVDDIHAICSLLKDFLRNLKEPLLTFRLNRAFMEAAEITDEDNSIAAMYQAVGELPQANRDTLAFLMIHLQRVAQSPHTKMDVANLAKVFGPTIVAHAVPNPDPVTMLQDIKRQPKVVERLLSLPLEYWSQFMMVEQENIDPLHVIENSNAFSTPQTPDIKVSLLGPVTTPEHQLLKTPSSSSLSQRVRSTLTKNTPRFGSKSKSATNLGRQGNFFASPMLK

A-375 [7] = assay: proliferation inhibition in MITF-low A375 cells – cell-based, cherry-pick samples, set 2, counter-screen for MITF modulator project, dose response (AID 540335); assay type: functional; details: Homo sapiens
[8] = blockade of melanocortin 4 receptor signaling – cell-based, plate reader, cherry pick, counter-screen for LGR2 antagonist project, dose response (AID 743444); assay type: functional;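 further: transfected HEK 293 cells stimulated with alpha-MSH peptide; potency of inhibitors of the alpha-MSH evoked signal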
[9] = viability loss in HEK293 cells – cell-based, plate reader, cherry-picked samples, cytotoxicity control, dose response (AID 743446); assay type: functional
[10] = viability loss in HeLa cells – cytotoxicity control for MgcRacGAP inhibitor project, dose response (AID 624300); assay type: functional
[11] = A549 cell cytotoxicity, dose response, cytotoxicity control, plate reader, cherry-pick, antagonist series (AID 743412); assay type: functional, cell-based
cells = assay type: functional
[12] = THP-1 cell cytotoxicity, dose response, cytotoxicity control for non-replicating M. tuberculosis project (AID 489025); assay type: functional
[13] = target: T3, Microphthalmia-associated transcription factor (Homo sapiens, UniProt O75030); assay: reducers of TRPM1 reporter luminescence, concentration series – cell-based, SK-MEL-5, cherry-picked, set 3, MITF inhibitor project, dose response (AID 493073); assay type: functional;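 further: SK-MEL-5 melanoma cells with luciferase driven by the MITF target TRPM1 promoter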
T3 sequence (O75030 whole entry): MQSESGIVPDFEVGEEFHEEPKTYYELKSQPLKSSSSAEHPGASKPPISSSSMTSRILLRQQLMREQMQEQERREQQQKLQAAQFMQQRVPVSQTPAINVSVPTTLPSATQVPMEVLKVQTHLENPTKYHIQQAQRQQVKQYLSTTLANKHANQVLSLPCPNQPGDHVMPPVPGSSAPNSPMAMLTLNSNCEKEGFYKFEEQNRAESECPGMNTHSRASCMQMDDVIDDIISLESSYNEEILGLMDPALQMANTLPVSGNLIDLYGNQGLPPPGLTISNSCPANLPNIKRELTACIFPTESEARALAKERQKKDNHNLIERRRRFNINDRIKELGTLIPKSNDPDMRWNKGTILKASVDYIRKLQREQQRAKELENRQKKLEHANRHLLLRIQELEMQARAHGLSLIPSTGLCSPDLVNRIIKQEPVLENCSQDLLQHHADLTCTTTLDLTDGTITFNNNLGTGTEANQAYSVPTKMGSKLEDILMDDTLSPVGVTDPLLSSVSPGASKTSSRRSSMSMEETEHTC

Aspartyl aminopeptidase = Aspartyl aminopeptidase (Plasmodium falciparum 3D7, UniProt Q8I2J3); assay: Counterscreen for inhibitors of M1 and M17 aminopeptidases: QFRET-based biochemical high throughput dose response assay for inhibitors of the Plasmodium falciparum M18 Aspartyl Aminopeptidase (PFM18AAP). [Related PubChem assays: 1619 (Screening assay (M17LAP inhibitors).), 1445 (Screening assay (M1AAP inhibitors).)]
Escherichia coli = assay: microbe, parasite or virus in culture
Procathepsin L = Procathepsin L (Homo sapiens, UniProt P07711); assay: CTSL1 protease inhibition – biochemical, QFRET, 1536-well, counter-screen for M1/M17 aminopeptidase inhibitor project, dose response (AID 2214)
Leucine aminopeptidase = target: T4, Leucine aminopeptidase (Plasmodium falciparum 3D7, UniProt Q8IL11); assay: P. falciparum M17LAP inhibitors, primary screen, biochemical, fluorogenic H-Leu-NHMec substrate, 1536-well (AID 1619); assay type: functional
T4 sequence (Q8IL11 whole entry): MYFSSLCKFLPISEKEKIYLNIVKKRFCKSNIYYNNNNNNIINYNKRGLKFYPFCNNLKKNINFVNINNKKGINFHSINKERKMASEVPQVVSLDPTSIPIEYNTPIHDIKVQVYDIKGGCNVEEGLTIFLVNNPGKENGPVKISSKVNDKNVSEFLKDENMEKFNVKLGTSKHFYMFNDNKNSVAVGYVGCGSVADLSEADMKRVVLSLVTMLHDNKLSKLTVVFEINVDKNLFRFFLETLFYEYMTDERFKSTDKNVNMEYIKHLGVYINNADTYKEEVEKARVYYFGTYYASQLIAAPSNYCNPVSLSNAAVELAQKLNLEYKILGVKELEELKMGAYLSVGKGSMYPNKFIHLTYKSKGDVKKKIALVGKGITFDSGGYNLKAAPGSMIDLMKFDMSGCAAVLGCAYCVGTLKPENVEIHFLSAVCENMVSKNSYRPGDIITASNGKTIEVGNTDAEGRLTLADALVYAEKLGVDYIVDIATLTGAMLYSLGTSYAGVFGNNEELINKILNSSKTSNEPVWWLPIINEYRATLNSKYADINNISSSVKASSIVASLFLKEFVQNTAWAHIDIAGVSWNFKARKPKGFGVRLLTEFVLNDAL

A-375 [14] = assay: MITF: Counter assay: A375 proliferation Measured in Cell-Based System Using Plate Reader - 2084-03_Inhibitor_Dose_DryPowder_Activity. [Related pubchem assays (depositor defined):AID488944]; assay type: functional; details: Homo sapiens
[15] = microbe, parasite or virus in culture; assay type: functional; details: Mycobacterium tuberculosis
[16] = target: T5, Histone-lysine N-methyltransferase NSD2 (Homo sapiens, UniProt O96028); assay type: biochemical
T5 sequence (O96028 whole entry): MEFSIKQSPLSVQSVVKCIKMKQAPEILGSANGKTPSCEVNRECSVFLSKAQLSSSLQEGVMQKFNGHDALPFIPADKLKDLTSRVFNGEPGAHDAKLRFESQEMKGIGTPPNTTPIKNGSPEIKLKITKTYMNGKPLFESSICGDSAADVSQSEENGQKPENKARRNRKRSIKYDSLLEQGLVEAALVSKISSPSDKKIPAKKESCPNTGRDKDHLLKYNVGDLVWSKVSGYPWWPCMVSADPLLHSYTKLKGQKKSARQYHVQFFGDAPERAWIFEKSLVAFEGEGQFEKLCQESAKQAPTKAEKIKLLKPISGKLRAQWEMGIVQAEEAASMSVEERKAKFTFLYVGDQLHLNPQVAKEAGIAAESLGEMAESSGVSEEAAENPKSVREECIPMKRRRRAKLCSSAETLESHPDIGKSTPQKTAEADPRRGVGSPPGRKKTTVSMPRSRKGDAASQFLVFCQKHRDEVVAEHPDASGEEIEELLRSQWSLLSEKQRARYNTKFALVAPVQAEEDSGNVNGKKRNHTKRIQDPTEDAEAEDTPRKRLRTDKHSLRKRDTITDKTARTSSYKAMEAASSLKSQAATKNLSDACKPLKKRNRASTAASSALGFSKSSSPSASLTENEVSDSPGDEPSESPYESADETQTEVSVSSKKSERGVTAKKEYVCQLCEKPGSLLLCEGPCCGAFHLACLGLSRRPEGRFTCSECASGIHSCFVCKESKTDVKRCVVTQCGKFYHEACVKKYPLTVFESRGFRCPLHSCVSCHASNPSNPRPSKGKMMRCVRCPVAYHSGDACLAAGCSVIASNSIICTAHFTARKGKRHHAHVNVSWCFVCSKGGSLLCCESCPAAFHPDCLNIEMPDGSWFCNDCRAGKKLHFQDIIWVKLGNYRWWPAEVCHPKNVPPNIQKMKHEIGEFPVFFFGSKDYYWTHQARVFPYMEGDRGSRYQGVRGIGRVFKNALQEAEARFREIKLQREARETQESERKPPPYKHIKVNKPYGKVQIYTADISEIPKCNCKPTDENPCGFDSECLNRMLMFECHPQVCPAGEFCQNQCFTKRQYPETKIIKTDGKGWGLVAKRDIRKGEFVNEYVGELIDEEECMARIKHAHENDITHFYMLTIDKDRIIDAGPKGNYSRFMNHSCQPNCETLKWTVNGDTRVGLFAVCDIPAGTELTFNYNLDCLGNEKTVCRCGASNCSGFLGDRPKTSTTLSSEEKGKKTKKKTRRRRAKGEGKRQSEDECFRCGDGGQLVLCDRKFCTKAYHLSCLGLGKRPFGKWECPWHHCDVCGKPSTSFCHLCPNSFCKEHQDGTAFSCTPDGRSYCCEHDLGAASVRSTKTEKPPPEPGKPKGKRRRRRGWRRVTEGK

Chain of Procathepsin L (P07711 whole entry): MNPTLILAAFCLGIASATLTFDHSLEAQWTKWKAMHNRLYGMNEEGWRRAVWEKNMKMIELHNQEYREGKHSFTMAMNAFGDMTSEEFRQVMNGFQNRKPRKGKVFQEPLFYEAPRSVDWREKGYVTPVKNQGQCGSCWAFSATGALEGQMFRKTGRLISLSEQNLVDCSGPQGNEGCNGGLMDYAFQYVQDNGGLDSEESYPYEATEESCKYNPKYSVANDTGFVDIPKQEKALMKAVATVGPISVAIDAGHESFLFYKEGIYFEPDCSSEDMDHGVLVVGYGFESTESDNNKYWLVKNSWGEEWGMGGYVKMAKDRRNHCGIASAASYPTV
Chain of Aspartyl aminopeptidase (Q8I2J3 whole entry): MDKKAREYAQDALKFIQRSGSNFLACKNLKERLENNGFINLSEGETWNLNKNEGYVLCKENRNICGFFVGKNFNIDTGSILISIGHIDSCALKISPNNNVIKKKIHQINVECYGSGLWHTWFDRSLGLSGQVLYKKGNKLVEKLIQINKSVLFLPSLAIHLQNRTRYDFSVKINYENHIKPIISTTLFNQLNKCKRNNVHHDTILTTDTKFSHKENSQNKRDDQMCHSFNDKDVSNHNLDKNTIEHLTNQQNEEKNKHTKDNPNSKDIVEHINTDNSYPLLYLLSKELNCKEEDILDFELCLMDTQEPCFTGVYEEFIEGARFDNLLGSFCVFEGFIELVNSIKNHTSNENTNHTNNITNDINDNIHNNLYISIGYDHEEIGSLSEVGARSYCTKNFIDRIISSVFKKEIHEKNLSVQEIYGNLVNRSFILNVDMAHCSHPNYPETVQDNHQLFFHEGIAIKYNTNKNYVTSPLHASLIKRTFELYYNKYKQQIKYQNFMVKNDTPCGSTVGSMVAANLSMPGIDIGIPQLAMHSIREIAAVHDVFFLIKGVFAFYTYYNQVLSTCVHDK

CC(C)(c1ccccc1)c1ccc(OCC(O)CNC2CCN(Cc3ccccc3)CC2)cc1 (configuration not stated)
CC50 [1]: 6.65 µM (active) | CC50 [2]: 5.72 µM (active) | IC50 [3]: > 20 µM (inactive) | AC50 [4]: 4.23 µM (active) | AC50 [5]: 10.5 µM (active) | IC50 [6]: 50.6 µM (active) | AC50 (A-375 [7]): 18.1 µM (active) | AC50 [8]: 6.77 µM (active) | AC50 [9]: 8.12 µM (active) | CC50 [10]: 17.6 µM (active) | AC50 [11]: 6.42 µM (active) | IC50 (cells): 5.15 µM (active) | CC50 [12]: 6.44 µM (active) | AC50 [13]: 7.94 µM (active)

COc1ccc2nc(SCC(=O)Nc3cc(OC)c(OC)cc3C(=O)O)c(C)cc2c1
IC50 (Aspartyl aminopeptidase): > 73.5 µM (not active) | AC50 (Escherichia coli): 27.6 µM (active) | IC50 (Procathepsin L): > 59.6 µM (not active) | IC50 (Leucine aminopeptidase): < 1 µM (active)

CC1C/C(=C\c2cccnc2)C(=O)/C(=C/c2cccnc2)C1 (configuration not stated)
AC50 (A-375 [14]): 21.5 µM (active) | CC50 [15]: 15.3 µM (active) | AC50 [16]: 19 µM (active) | AC50 [13]: 2.66 µM (active)
